Values after ≈ are worked out from the molar mass of the structure shown.
These compounds were tested against T1, Human Polymorphonuclear Leukocyte Elastase (Homo sapiens, UniProt P08246) (assay: biochemical). Settings: not given.
T1 sequence (P08246 30-247 limits assumed): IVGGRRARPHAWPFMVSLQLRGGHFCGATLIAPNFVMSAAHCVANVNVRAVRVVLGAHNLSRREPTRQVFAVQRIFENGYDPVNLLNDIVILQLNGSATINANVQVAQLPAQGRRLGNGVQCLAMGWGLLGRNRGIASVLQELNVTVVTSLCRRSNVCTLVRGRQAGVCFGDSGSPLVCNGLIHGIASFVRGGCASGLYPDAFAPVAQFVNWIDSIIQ
Experimental: Protocol--Enzyme Assays for the Inhibition of Human Polymorphonuclear Leukocyte Elastase Via Hydrolysis of N-t-Boc-alanyl-alanyl-prolylalanine-p-nitroanilide Reagents:
0.05M TES (N-tris[hydroxymethyl]methyl-2-amino-ethanesulfonic acid) Buffer, pH 7.5.
0.2 mMN-t-Boc-alanyl -alanyl -prolyl-alanine-p-nitroanilide (Boc-AAPAN).
To prepare substrate, the solid (m.w. 550) was first dissolved in 10.0 ml DMSO. Buffer at pH 7.5 was then added to a final volume of 100 ml.
Crude extract of human polymorphonuclear leukocytes (PMN) containing elastase activity.
Inhibitors (cephalosporin sulfone esters) to be tested dissolved in DMSO just before use.
To 1.0 ml of 0.2 mM Boc-AAPAN in a cuvette, 0.01-0.1 ml of DMSO with or without inhibitor was added. After mixing, a measurement was taken at 410 mμ to detect any spontaneous hydrolysis due to presence of test compound. 0.05 Milliliters of PMN extract was then added and the ΔOD/min at 410 mμ was measured and recorded. Beckman model 35 spectrophotometer was used.
The elastase activity in the crude PMN extract may vary from one preparation to another. A control of each new batch is run, and the volume added in the assay procedure is adjusted according to activity.

Compound | IC50 [nM]
CO[C@H]1C(=O)N2C(C(=O)OC(C)(C)C)=C(CS(=O)(=O)c3ccccc3)CS(=O)(=O)C12 (single isomer, unassigned) [R1=OCH3, M=CH2SO2.phi., B=OtBu, Q=H, t-Butyl 3-phenylsulfonylmethyl-7α-methoxy-8-oxo-5-thia-1-azabicyclo[4.2.0]oct-2-ene-2-carboxylate-5,5-dioxide] | 437
CO[C@H]1C(=O)N2C(C(=O)OC(C)(C)C)=C(C[S+]([O-])c3ccccc3)CS(=O)(=O)C12 (single isomer, unassigned) [R1=OCH3, M=CH2SO.phi., B=OtBu, Q=H, t-Butyl 3-phenylsulfinylmethyl-7α-methoxy-8-oxo-5-thia-1-azabicyclo[4.2.0]oct-2-ene-2-carboxylate-5,5-dioxide] | 181
CC(=O)OCC1=C(C(=O)OC(C)(C)C)N2C(=O)[C@H](Cl)[C@H]2S(=O)(=O)C1 [R1=Cl, M=CH2OCOCH3, B=OtBu, Q=H, t-Butyl 3-acetyloxymethyl-7α-chloro-8-oxo-5-thia-1-azabicyclo[4.2.0]oct-2-ene-2-carboxylate-5.5-dioxide] | 52.7
CC(=O)OCC1=C(C(=O)OC(C)(C)C)N2C(=O)[C@H](F)[C@H]2S(=O)(=O)C1 [R1=F, M=CH2OCOCH3, B=OtBu, Q=H, t-Butyl 3-acetyloxymethyl-7α-fluoro-8-oxo-5-thia-1-azabicyclo[4.2.0]oct-2-ene-2-carboxylate-5,5-dioxide] | 82.6
CC(=O)OCC1=C(C(=O)OC(C)(C)C)N2C(=O)C(Oc3ccccc3)C2S(=O)(=O)C1 (centres unmarked) [R1=OC6H5, M=CH2OCOCH3, B=OtBu, Q=H] | 1830
COCC1=C(C(=O)OC(C)(C)C)N2C(=O)[C@H](OC)C2S(=O)(=O)C1 (some centres unmarked) [R1=OCH3, M=CH2OCH3, B=OtBu, Q=H] | 864
CO[C@H]1C(=O)N2C(C(=O)OCc3ccccc3)=C(COC(C)=O)CS(=O)(=O)[C@H]12 [R1=OCH3, M=CH2OCOCH3, B=OCH2.phi., Q=H, Benzyl 3-acetyloxymethyl-7α-methoxy-8-oxo-5-thia-1-azabicyclo[4.2.0]oct-2-ene-2-carboxylate-5,5-dioxide] | 73.3
COC(=O)C1=C(COC(C)=O)CS(=O)(=O)C2C(OC)C(=O)N12 (centres unmarked) [R1=OCH3, M=CH2OCOCH3, B=OCH3, Q=H] | 240

Same assay, conditions: Table II; 50% inhibition of the enzyme activity 2 minutes after zero time; crude PMN extract, pH 7.5, 0.2 mM Boc-AAPAN

Compound | ED50 [µg/mL]
CO[C@H]1C(=O)N2C(C(=O)OC(C)(C)C)=C(CCl)CS(=O)(=O)C12 (stereo partly drawn) [R1=OCH3, M=CH2Cl, B=OtBu, Q=H, t-Butyl 3-chloromethyl-7α-methoxy-8-oxo-5-thia-1-azabicyclo[4.2.0]oct-2-ene-2-carboxylate-5,5-dioxide] | 0.15 (≈ 0.426 µM)
CO[C@H]1C(=O)N2C(C(=O)OC(C)(C)C)=C(CSc3ccccc3)CS(=O)(=O)C12 (stereo partly drawn) [R1=OCH3, M=CH2S.phi., B=OtBu, Q=H, t-Butyl 3-phenylthiomethyl-7α-methoxy-8-oxo-5-thia-1-azabicyclo[4.2.0]oct-2-ene-2-carboxylate-5,5-dioxide] | 0.4 (≈ 0.94 µM)
CO[C@H]1C(=O)N2C(C(=O)OC(C)(C)C)=C(C)CS(=O)(=O)C12 (stereo partly drawn) [R1=OCH3, M=CH3, B=OtBu, Q=H, t-Butyl 3-methyl-7α-methoxy-8-oxo-5-thia-1-azabicyclo [4.2.0]oct-2-ene-2-carboxylate-5,5-dioxide] | 1.0 (≈ 3.15 µM)

Same assay, conditions: Table II; 50% inhibition of the enzyme activity 2 minutes after zero time; crude PMN extract, pH 7.5, 0.2 mM Boc-AAPAN; read-out: ED50 (the source's name) (converted)

Compound | IC50 [nM]
COC1C(=O)N2C(C(=O)OC(C)(C)C)=C(COC(=O)c3ccccc3C(=O)O)CS(=O)(=O)C12 (centres unmarked) | 1250
COC1C(=O)N2C(C(=O)OCC=C(C)C)=C(COC(C)=O)CS(=O)(=O)C12 (centres unmarked) | 2580
COC1C(=O)N2C(C(=O)OC(C)(C)C)=C(COC(C)=O)C(CS(=O)(=O)c3ccccc3)S(=O)(=O)C12 (centres unmarked) | 37.8
COC(=O)c1cccc(COC(=O)C2=C(C)CS(=O)(=O)C3C(OC)C(=O)N23)c1 (centres unmarked) | 733
CCC1C(=O)N2C(C(=O)OC(C)(C)C)=C(COC(=O)CCC(=O)O)CS(=O)(=O)C12 (centres unmarked) [R1=C2H5, M=CH2OCOCH2CH2COOH, B=OtBu, Q=H] | 1850
CCC1C(=O)N2C(C(=O)OCc3ccccc3)=C(COC(C)=O)CS(=O)(=O)C12 (centres unmarked) [R1=C2H5, M=CH2OCOCH3, B=OCH2.phi., Q=H] | 982
CCC1C(=O)N2C(C(=O)OC(C)(C)C)=C(COC(=O)NC(C)C(=O)O)CS(=O)(=O)C12 (centres unmarked) [R1=C2H5, M=drawing 31, B=OtBu, Q=H] | 2240
CCC1C(=O)N2C(C(=O)OC(C)(C)C)=C(COC(=O)C(N)c3ccccc3)CS(=O)(=O)C12 (centres unmarked) [R1=C2H5, M=drawing 32, B=OtBu, Q=H] | 861
CO[C@H]1C(=O)N2C(C(=O)OC(C)(C)C)=C(COC(=O)CCC(=O)O)CS(=O)(=O)C12 (stereo partly drawn) [R1=OCH3, M=CH2OCOCH2CH2COOH, B=OtBu, Q=H, t-Butyl 3-(3-[hydroxycarbonyl]Propanoyloxymethyl)-7α-methoxy-8-oxo-5-thia-1-azabicyclo[4.2.0]oct-2-ene-2-carboxylate-5,5-dioxide] | 231
CNCC(=O)OCC1=C(C(=O)OC(C)(C)C)N2C(=O)C(OC)C2S(=O)(=O)C1 (centres unmarked) [R1=OCH3, M=CH2OCOCH2NHCH3, B=OtBu, Q=H] | 742
COC1C(=O)N2C(C(=O)N(C)C)=C(COC(C)=O)CS(=O)(=O)C12 (centres unmarked) [R1=OCH3, M=CH2OCOCH3, B=N(CH3)2, Q=H] | 1730
CO[C@H]1C(=O)N2C(C(=O)NCC(=O)OC(C)(C)C)=C(COC(C)=O)CS(=O)(=O)[C@H]12 [R1=OCH3, M=CH2OCOCH3, B=NHCH2COOtBu, Q=H, N-(t-Butoxycarbonyl)methyl 3-acetyloxymethyl-7α-methoxy-8-oxo-5-thia-1-azabicyclo[4.2.0]oct-2-ene-2-carboxamide-5,5 dioxide] | 2080
COC1C(=O)N2C(C(=O)OCC(=O)C(C)(C)C)=C(COC(C)=O)CS(=O)(=O)C12 (centres unmarked) [R1=OCH3, M=CH2OCOCH3, B=OCH2COtBu, Q=H] | 47.9
C=C1C(COC(C)=O)=C(C(=O)OC(C)(C)C)N2C(=O)[C@H](OC)[C@H]2S1(=O)=O [R1=OCH3, M=CH2OCOCH3, B=OtBu, Q=CH2, t-Butyl 3-acetyloxymethyl-7α-methoxy-4-methylene-8-oxo-5-thia-1-azabicyclo [4.2.0]oct-2-ene-2-carboxylate-5,5-dioxide] | 77.4
COC1C(=O)N2C(C(=O)OC(C)(C)C)=C(COC(C)=O)C(Cc3ccccc3)S(=O)(=O)C12 (centres unmarked) [R1=OCH3, M=CH2OCOCH3, B=OtBu, Q=CH2.phi.] | 32200
CO[C@H]1C(=O)N2C(C(=O)OC(C)(C)C)=C(COC(C)=O)C(C)S(=O)(=O)[C@H]12 (some centres unmarked) [R1=OCH3, M=CH2OCOCH3, B=OtBu, Q=CH3] | 77
CO[C@H]1C(=O)N2C(C(=O)OC(C)(C)C)=C(COC(C)=O)CS(=O)(=O)[C@H]12 [R1=OCH3, M=CH2OCOCH3, B=OtBu, Q=H, t-Butyl-3-acetyloxymethyl-7α-methoxy-8-oxo-5-thia-1-azabicyclo[4.2.0]oct-2-ene-2-carboxylate-5,5-dioxide] | 1330
COC1C(=O)N2C(C(=O)N3CCC[C@H]3C(=O)O)=C(COC(C)=O)CS(=O)(=O)C12 (some centres unmarked) [R1=OCH3, M=CH2OCOCH3, B=drawing 33, Q=H] | 12000
CO[C@H]1C(=O)N2C(C(=O)OC(C)(C)C)=C(COC(=O)NCC(=O)O)CS(=O)(=O)C12 (stereo partly drawn) [R1=OCH3, M=CH2OCONHCH2COOH, B=OtBu, Q=H, t-Butyl 3-hydroxycarbonylmethylaminocarbonyloxymethyl-7α-methoxy-8-oxo-5-thia-1-azabicyclo[4.2.0]oct-2-ene-2-carboxylate-5,5-dioxide] | 92.1
CCOC(=O)OCC1=C(C(=O)OC(C)(C)C)N2C(=O)C(OC)C2S(=O)(=O)C1 (centres unmarked) [R1=OCH3, M=CH2OCOOC2H5, B=OtBu, Q=H] | 740
COC1C(=O)N2C(C(=O)OC(C)(C)C)=C(CO)CS(=O)(=O)C12 (centres unmarked) [R1=OCH3, M=CH2OH, B=OtBu, Q=H] | 2400
COC1C(=O)N2C(C(=O)OC(C)(C)C)=C(CS(C)(=O)=O)CS(=O)(=O)C12 (centres unmarked) [R1=OCH3, M=CH2SO2CH3, B=OtBu, Q=H] | 253
CCOC(=O)COC(=O)C1=C(C)CS(=O)(=O)C2C(OC)C(=O)N12 (centres unmarked) [R1=OCH3, M=CH3, B=OCH2COOC2H5, Q=H] | 1440
CO[C@H]1C(=O)N2C(C(=O)OC(C)(C)C)=C(C(=O)O)CS(=O)(=O)C12 (stereo partly drawn) [R1=OCH3, M=COOH, B=OtBu, Q=H, t-Butyl 3-hydroxycarbonyl-7α-methoxy-8-oxo-5-thia-1-azabicyclo[4.2.0]oct-2-ene-2-carboxylate-5,5 dioxide] | 28.8
COC(=O)C1=C(Cl)CS(=O)(=O)C2[C@@H](OC)C(=O)N12 (stereo partly drawn) [R1=OCH3, M=Cl, B=OCH3, Q=H, Methyl-3-chloro-7α-methoxy-8-oxo-5-thia-1-azabicyclo[4.2.0]oct-2-ene-2-carboxylate-5,5-dioxide] | 676

Same assay, conditions: Table IIa; 50% inhibition of the enzyme activity 2 minutes after zero time; crude PMN extract, pH 7.5, 0.2 mM Boc-AAPAN; read-out: ED50 (the source's name) (converted)

Compound | IC50 [nM]
CC(=O)OCC1=C(C(=O)OC(C)(C)C)N2C(=O)C(Cl)(Cl)C2S(=O)(=O)C1 (centres unmarked) | 241
CC(=O)OCC1=C(C(=O)OC(C)(C)C)N2C(=O)C(F)(F)C2S(=O)(=O)C1 (centres unmarked) | 131

From patent publication US5364848A, “Substituted cephalosporin sulfones as anti-inflammatory and antidegenerative agents” (Merck & Co., Inc., priority 1992, dated 1994)
